Reference: PMC8473290 (Viruses, 2021)
Peptide text beside a SMILES is read from it.

What was measured:
[1] = test system: HCMV strain Merlin-pAL1502; test: Cell-associated focal spread of Merlin-pAL1502 in HFFs; assay type: cell-based, Human cytomegalovirus
[2] = test system: recent cell-associated clinical HCMV isolates; test: Cell-associated focal spread of recent clinical HCMV isolates in HFF co-culture; assay type: cell-based, Human cytomegalovirus; settings: 60 µmol/L, added 1 d p.i., fixed 7 d p.i.
[3] = test system: TB40-BAC4; test: Inhibition of cell-free HCMV infection of HFFs (TB40-BAC4); assay type: cell-based, Human cytomegalovirus
[4] = test system: HSV-1 R10.2; test: Inhibition of cell-free HSV-1 infection of HFFs; assay type: cell-based, herpes simplex virus 1; settings: 1 h preincubation, MOI 1, fixed 6 h p.i.
[5] = test system: HSV-2 R6; test: Inhibition of cell-free HSV-2 infection of HFFs; assay type: cell-based, herpes simplex virus 2; settings: 1 h preincubation, MOI 1, fixed 6 h p.i.
[6] = test system: Merlin-pAL1502-UL32EGFP-UL100mCherry; test: Single particle analysis of virion transfer with dual fluorescent Merlin; assay type: cell-based, Human cytomegalovirus; settings: 125 µmol/L, added 1 d p.i.
[7] = test system: HCMV strain Merlin-pAL1502; test: Reversibility of inhibition of cell-associated spread after peptide removal; assay type: cell-based, Human cytomegalovirus

Compound: CC[C@H](C)[C@H](NC(=O)[C@H](Cc1ccc(O)cc1)NC(=O)[C@@H](NC(=O)[C@H](Cc1c[nH]cn1)NC(=O)[C@H](CCCNC(=N)N)NC(=O)CN)[C@@H](C)CC)C(=O)N[C@@H](Cc1ccc(O)cc1)C(=O)N[C@H](C(=O)N1CCC[C@H]1C(=O)N[C@@H](CC(=O)O)C(=O)N1CCC[C@H]1C(=O)N[C@@H](CC(=O)O)C(=O)N[C@H](C(=O)N[C@@H](C)C(=O)N[C@@H](Cc1ccccc1)C(=O)N[C@H](C(=O)N1CCC[C@H]1C(=O)N[C@@H](CC(C)C)C(=O)NCC(=O)N[C@@H](CCSC)C(=O)N[C@H](C(=O)N[C@@H](CC(=O)O)C(=O)N[C@@H](Cc1ccc(O)cc1)C(=O)N[C@@H](CC(C)C)C(=O)N[C@H](C(=O)N[C@H](C(=O)N[C@H](C(=O)N[C@@H](CCC(=O)O)C(=O)N[C@@H](CC(=O)O)C(=O)N[C@@H](CC(=O)O)C(=O)O)C(C)C)[C@@H](C)CC)C(C)C)[C@@H](C)O)C(C)C)C(C)C)C(C)C [GD30] (H-GRHIYIYVPDPDVAFVPLGMTDYLVIVEDD-OH; N-terminus and C-terminus assumed)
- Reduction of focal growth compared with GT40 ([1]; 60 µmol/L, added 1 d p.i., fixed 7 d p.i.): to a similar extent but not more than GT40
- Inhibition of cell-associated spread ([1]; 125 µmol/L, applied 42 h p.i., MOI 0.005): almost completely inhibits
- Reduction of focal growth compared with GT40 [2]: to a similar extent but not more than GT40
- Antiviral effect against cell-free virus ([3]; 2 h preincubation with virus, MOI 1, fixed next day): effective against cell-free virus
- Hill slope of the dose-response curve ([3]; cell-free virus, 2 h preincubation, MOI 1): −1.67
- Extent of inhibition of cell-free virus [4]: completely
- Extent of inhibition of cell-free virus [5]: completely
- Reduction of the total number of particles transferred ([6]; MOI 0.05, versus DMSO control, 10 frames): 78%
- Percentage of naked capsids ([6]; MOI 0.05, untreated control 86%): 7%
- Focus size under permanent treatment ([7]; 125 µmol/L from 42 h p.i. until fixation at day 8): almost exclusively single infected cells
- Reversibility of the inhibitory effect after peptide removal ([7]; 125 µmol/L from 42 h to 5 d p.i., then 3 d without peptide): completely reversible
- Mean focus size after intermittent treatment ([7]; 125 µmol/L from 42 h to 5 d p.i., withdrawn, fixed 8 d p.i., untreated control up to 50): around 15 infected cells per focus
